“Also recorded” adds a separate entry of the source. The star is where a group is joined. X1 = 4‑(N,N-Bis(2-pyridylmethyl)aminomethyl)benzoyl, O=C(c1ccc(CN(Cc2ccccn2)Cc2ccccn2)cc1)*; 4‑(guanidinomethyl)benzoyl = N=C(N)NCc1ccc(C(=O)*)cc1

The text below walks through data of patent US20040142875A1, “Metastin derivatives and their use” (priority 2003, published 2004).

The test system of assay [1] is Panc-1 cells. Nature of the assay: Cell proliferation assay, Panc-1. The class given is cell-based. Conditions: for proliferation activity (cell growth): Panc-1 with KiSS-1 short derivatives, FIG. 7A. The procedure:
(§1) Pancreatic cancer cell lines AsPC-1, BxPC-3, Capan-2, CFPAC-1, Panc-1 and Suit-2 were purchased from the American Type Culture Collection. Cells were cultured as monolayers in the appropriate medium supplemented with 10% fetal bovine serum, 100 units/ml penicillin, and 100 μg/ml streptomycin at 37° C., in a humid atmosphere of 5% CO2/95% air. As for AsPC-1 and Panc-1, upon reaching 80% confluence, the medium was removed, the cells were washed in phosphate-buffered saline (PBS) and treated with increasing doses of metastin (Takeda Chemical Industries, Osaka, Japan) with 10% fetal bovine serum and protein was isolated 15 minutes later as described below.
(§2) For assaying proliferation, AsPC-1 and Panc-1 cells (1×10^4cells/3 cm diameter dish) were seeded in 10% FBS medium and incubated with increasing doses of metastin for 48 and 96 hours. Cells were trypsinized and cell numbers were counted using hematocytometer.

In assay [2] the test system is Panc-1 cells. Nature of the assay: Cell migration assay, Panc-1. Type of assay: cell-based. Conditions: for migration index: Panc-1 with KiSS-1 short derivatives, FIG. 7B. The procedure: (§3) A polyvinylpyrrolidone-free polycarbonate framed filter (8 μm pores) was set in a microchemotasis chamber (Corning Coster Corp., Cambridge, Mass.). Cells (2×10^6 cells in 200 μl RPMI1640 for AsPC-1 and in 200 μl DMEM for Panc-1) and peptide were added to the upper chamber and incubated at 37° C. for 12 hours to allow migration to the lower chamber, which contained 10% FBS/RPMI1640 for AsPC-1 or 5% FBS/DMEM for Panc-1 as a chemoattractant. After removing nonmigrating cells with a cotton swab from the upper surface of the membrane, cells on the lower surface were fixed, stained with Diff-Quick (International Reagent, Kobe, Japan). For quantification, cells were counted under a microscope in five predetermined fields at X200.

For assay [3], the system named is ERK1/2, p38 and JNK1/2 in Panc-1 cells. The assay is described as follows: MAPK activation by Western blot, Panc-1. Type of assay: cell-based. The settings on record: 15 minutes, immunoblot, FIG. 5, FIG. 7C. Here is the method:
as §1
Cells were collected into microtubes with a cell scraper and lysed for 60 min in phosphorylation-inhibitory RIPA buffer containing 50 mM HEPES (pH 7.0), 250 mM NaCl, 0.1% Nonidet P-40, 1 mM phenylmethylsulfonyl fluoride (PMSF) and 20 μg /ml gabexate mesilate, then the lysate was sonicated for 10 sec. Total extracts were cleaned by centrifugation at 12,000 rpm for 10 min at 4° C., the supernatants were collected. Protein concentrations were measured using a protein assay kit (Tonein-TP, Otsuka Pharmaceutical, Tokyo, Japan). The lysates were resuspended in one volume of the gel loading buffer which contained 50 mM Tris-HCl (pH 6.7), 4% SDS, 0.02% bromophenol blue, 20% glycerol and 4% 2-mercaptoethanol, and then boiled at 95° C. for 90 sec. The extracted protein was subjected to Western blotting, as previously described (Wada, M. et al., Pancreas. 15: 176-82., 1997). In brief, 30 μg aliquots of protein was size-fractionated to a single dimension by SDS-PAGE (12% gels) and transblotted to a 0.45 μm polyvinylidene difluoride membrane (Bio-Rad, Richmond, Calif.) in a semidry electroblot apparatus (Bio-Rad, Richmond, Calif.). The blots were, then washed three times with TBST buffer and incubated for two hours at RT in the first antibody solution containing anti-phosphoERK antibody (#pTEpY, Promega, Madison, Wis.), anti-phosphop38 MAPK (#pTGpY, Promega, Madison, Wis.) or anti-phosphoJNK(#pTPpY, Promega, Madison, Wis.), 0.2% I-block (Promega, Madison, Wis.). After three washings in TBST buffer, the blots were incubated for one hour at RT with horseradish peroxidase conjugated anti-rabbit IgG at a 1:2000 dilution with TBST buffer. After three washings in TBST buffer, membranes were treated with enhanced chemiluminescence reagents (Amersham Life Sciences, Amersham, UK) according to the manufacturer's protocol. Membranes were exposed to X-ray film for 5-60 seconds. Protein expression was measured by ATTO densito-analyzer system AE-6920M (ATTO Corporation, Tokyo Japan) and the quantity was expressed numerically. The quantity of the target protein was divided by that of beta actin and relative intensities were obtained.
To evaluate the signaling pathways activated by endogenous metastin receptors in pancreatic cancer, activation of MAPK was examined by treatment with metastin. Cells in exponential stage were incubated in serum containing medium and then transferred to the 1% BSA medium with metastin, as in the case of migration or invasion assay. After incubation with increasing dose of metastin (0 μM, 0.1 μM, 1 μM, 10 μM) for 15 minutes, activation of ERK1/2, p38 and JNK1/2 were measured by immunoblot (FIG. 5A).
A general note: A western blot detects proteins with antibodies after separation by electrophoresis.

The test system of assay [4] is AsPC-1 cells. The assay is described as follows: Cell proliferation assay, AsPC-1. Type of assay: cell-based. The settings on record: metastin 0, 100 μM, 1 μM and 10 μM for 48 hours and 96 hours, FIG. 3. Here is the method:
as §1, §2

In assay [5] the test system is AsPC-1 cells. Nature of the assay: Cell migration assay, AsPC-1. Conditions: metastin 0 μM, 100 μM, 1 μM, 10 μM for 12 hours, FIG. 4A. The class given is cell-based. The procedure:
as §3

Assay [6] deals with AsPC-1 cells. Nature of the assay: Matrigel invasion assay, AsPC-1. The class given is cell-based. Conditions: 10 μM metastin, 12 hours, FIG. 4B. Here is the method: (§4) Cells and peptide (2×10^6 cells in 200 μl RPMI1640 for AsPC-1 and in 200 μl DMEM for Panc-1) were added to a Matrigel-coated Transwell(8 μm pores,. Becton Dickinson Labware, Bedford, Mass.) and incubated at 37° C. for 12 hours versus a lower chamber containing 10% FBS/RPMI1640 for AsPC-1 or 5% FBS/DMEM for Panc-1. After removing the Matrigel and cells from the upper surface of the membrane, cells on the lower surface were fixed, stained with Diff-Quick and quantified the number as well. Invasion index was defined as the number of invasion cells per that of migrating cells.

In assay [7] the test system is Panc-1 cells. Nature of the assay: Matrigel invasion assay, Panc-1. Type of assay: cell-based. Conditions: 10 μM metastin, 12 hours, FIG. 4B. Here is the method:
as §4

Assay [8] concerns ERK1/2, p38 and JNK1/2 in AsPC-1 cells. Nature of the assay: MAPK activation by Western blot, AsPC-1. Type of assay: cell-based. Conditions: 0-10 μM for 15 minutes, immunoblot. The procedure:
as §1
Cells were collected into microtubes with a cell scraper and lysed for 60 min in phosphorylation-inhibitory RIPA buffer containing 50 mM HEPES (pH 7.0), 250 mM NaCl, 0.1% Nonidet P-40, 1 mM phenylmethylsulfonyl fluoride (PMSF) and 20 μg /ml gabexate mesilate, then the lysate was sonicated for 10 sec. […] Protein concentrations were measured using a protein assay kit (Tonein-TP, Otsuka Pharmaceutical, Tokyo, Japan). […] Protein expression was measured by ATTO densito-analyzer system AE-6920M (ATTO Corporation, Tokyo Japan) and the quantity was expressed numerically. The quantity of the target protein was divided by that of beta actin and relative intensities were obtained. […]

Assay [9] relates to hOT7T175 transfected B16-BL6 melanomas. Conditions: hOT7T175 transfected B16-BL6 melanomas in vivo; Ohtaki et al.; cited from earlier work.
Assay [10] deals with hOT7T175 transfected Chinese hamster ovary (CHO) cells. Conditions: hOT7T175 transfected CHO cells in vitro; Hori et al., Kotani et al.; cited from earlier work.

As to “4-[N,N-Bis(2 -pyridylmethyl)aminomethyl]benzoyl-Phe-Gly-Leu-Arg-Trp-NH2 (X1-FGLRW-NH2) [FM052a]”, the “proliferation activity (cell growth)” value with Panc-1 cells [1] is “cell growth was not affected”. Further, the migration index entry in the assay on Panc-1 cells [2] is listed as “reduced the migration index; also recorded: nearly same activity with metastin”. Also, in [3], the “activation of ERK1 (pERK1)” value is reported as “ERK1 activation was observed”, the “activation of JNK1/2 (pJNKs)” value was “not augmented” and the “activation of p38 (pp38)” value was “slightly activated”.
On to “4-(guanidinomethyl) benzoyl-Phe-Gly-Leu-Arg-Trp-NH2 ({4‑(guanidinomethyl)benzoyl}-FGLRW-NH2) [FM053a]”, for which the “proliferation activity (cell growth)” value in the assay with Panc-1 cells [1] is “cell growth was not affected”. In the assay on Panc-1 cells [2], the migration index entry was “reduced the migration index; also recorded: less suppressive than FM052a”. In addition, in assay [3], the “activation of ERK1 (pERK1)” value is “less activation of pERK1 than FM052a”, the “activation of JNK1/2 (pJNKs)” value is listed as “not augmented” and the “activation of p38 (pp38)” value is “slightly activated”.
For “metastin: 54 amino acid peptide with C-terminal amidation processed from KiSS-1; ligand of receptor hOT7T175 (AXOR12)”, the cell growth result in the assay on AsPC-1 cells [4] is on record as “Neither AsPC-1 nor Panc-1 showed growth retardation”; in the assay on Panc-1 cells [1] (Panc-1, metastin 0, 100 μM, 1 μM and 10 μM for 48 hours and 96 hours, FIG. 3), “Neither AsPC-1 nor Panc-1 showed growth retardation”. For the same substance, the migratory activity entry in the assay on AsPC-1 cells [5] was “little influenced”. The “reduction of migratory activity” value in the assay on Panc-1 cells [2] (Panc-1, metastin 0 μM, 100 μM, 1 μM, 10 μM for 12 hours, p<0.01, FIG. 4A) was “up to 40%”. For the same substance, the “invasion activity (invasion index)” value with AsPC-1 cells [6] and with Panc-1 cells [7] was “Invasion activity was not influenced” throughout. In addition, the “activation of ERK1 (pERK1)” value in [8] and in assay [3] was “pERK1 was augmented” throughout. In addition, the “activation of JNK1/2 (pJNKs)” value in assay [8] and in [3] was “no reduction or increase of pJNKs” each time. In addition, the “activation of p38 (pp38)” value in assay [3] is “Slight activation of p38”. Besides, in assay [9], the pulmonary metastasis entry is reported as “attenuates pulmonary metastasis”. The chemotaxis and invasion result in assay [10] is “inhibit chemotaxis and invasion”.
